Laboratory results taken from article PMC12516498, “Enzymatic, cell-based, and in silico evaluation of di-substituted aminomethyl-1,2,3-triazole–cinamamide hybrids as mushroom tyrosinase inhibitors” (RSC Advances, 2025).

Key:
[1] = DPPH free radical-scavenging assay; conditions: 200 µM compound, DPPH 110 µM, 30 min
Protocol: As described previously, radical-scavenging activity was assessed using the 2,2-diphenyl-1-picrylhydrazyl (DPPH) assay. Briefly, the mixture of different concentrations of the compounds and DPPH methanolic solution (110 µM) was shaken in the dark at room temperature for 30 min. The mixture absorbance was measured at 517 nm. Quercetin was used as the positive control.[25]

[2] = MTT assay for cell viability; format: cell-based, murine; conditions: mouse, B16F10 melanoma cells, MTT, 72 h, read-out: % Viability ± SE
Protocol: (§1) The cytotoxic activity of all derivatives was determined using the 3-(4,5-dimethylthiazol-2-yl)-2,5-diphenyltetrazolium bromide (MTT) assay. B16F10 were obtained from the Pasteur Institute of Iran (https://en.pasteur.ac.ir/). Cells (at a density of 25 000 cells per ml) were grown at 37 °C in the presence of CO2 5% in DMEM (Gibco BRL, Grand Island, NY, USA), 10% fetal bovine serum (FBS, Gibco BRL). Next, cells were seeded in a 96-well plate and incubated at 37 °C with the derivative at different concentrations for 72 h. Following treatment, cells were incubated with MTT (0.5 mg mL^−1) for 3 h. The MTT-containing medium was then removed, and 100 µL of DMSO was added to each well, mixed thoroughly with a 10-minute shake to dissolve the formazan crystals. The absorbance of each well was measured at 540 nm.[28]

B16F10 melanoma cells [3] = experiment: MTT assay for cell viability; format: cell-based, murine; conditions: concentrations ≤100 µM
Protocol: as §1

B16F10 melanoma cells [4] = experiment: Melanin content assay; format: cell-based, murine; conditions: α-MSH 100 nM, 70 µM compound, 48 h, untreated control 92 µg mL^−1
Protocol: The melanin content assay was performed according to previously reported protocols with minor modifications. Briefly, B16F10 cells were seeded in 12-well plates at a density of 50 000 cells per well. After 24 hours of incubation, 100 nM α-MSH was added to each well, followed by the addition of compound 9i five hours later. The plates were then incubated for an additional 48 hours. Subsequently, the cells were washed twice with PBS and harvested using […]. The cell pellets were dissolved in 200 µL of 1 N NaOH containing 10% DMSO and incubated at 80 °C for 2 hours to solubilize the melanin. The absorbance of the resulting supernatant was measured at […] using a microplate reader. The melanin content was quantified using a calibration curve constructed from synthetic melanin standards, measured at 405 nm. Kojic acid was used as a positive control for comparison.[29]

mushroom tyrosinase = mushroom tyrosinase (Agaricus bisporus, UniProt C7FF04); experiment: Enzyme kinetic study / determination of the inhibition type (Lineweaver–Burk); format: biochemical; conditions: Lineweaver–Burk plot: Km increased, Vmax unchanged
mushroom tyrosinase, sequence (C7FF04 2-392): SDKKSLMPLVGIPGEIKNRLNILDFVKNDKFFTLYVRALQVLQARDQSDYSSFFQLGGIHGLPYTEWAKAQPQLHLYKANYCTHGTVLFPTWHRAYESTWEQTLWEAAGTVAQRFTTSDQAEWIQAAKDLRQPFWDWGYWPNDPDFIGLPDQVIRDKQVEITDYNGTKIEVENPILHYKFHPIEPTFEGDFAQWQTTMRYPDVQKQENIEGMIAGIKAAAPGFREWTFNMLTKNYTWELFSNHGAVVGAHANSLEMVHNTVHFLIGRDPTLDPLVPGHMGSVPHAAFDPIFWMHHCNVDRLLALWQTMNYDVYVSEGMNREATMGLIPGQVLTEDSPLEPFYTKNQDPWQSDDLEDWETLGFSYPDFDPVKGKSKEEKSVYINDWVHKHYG
Protocol: The substrate (L-DOPA) concentrations ranged from 0.5 to 2.8 mM according to the previously reported procedures.[24]

tyrosinase = conditions: in Fig. 1; 13–15; read-out: IC50 against Tyrosinase; cited from earlier work

Structure (SMILES) | DPPH radical scavenging % Inhibition at 200 µM [1] [%] | other results
O=C(C=Cc1ccccc1)NCc1cn(CC(=O)Nc2ccccc2)nn1 [Compound 9a, N-((1-(2-Oxo-2-(phenylamino)ethyl)-1H-1,2,3-triazol-4-yl)methyl)cinnamamide] | 23.64 ± 4.63 | –
O=C(C=Cc1ccccc1)NCc1cn(CC(=O)Nc2ccc(F)cc2)nn1 [Compound 9b, N-((1-(2-((4-Fluorophenyl)amino)-2-oxoethyl)-1H-1,2,3-triazol-4-yl)methyl)cinnamamide] | 64.18 ± 2.31 | –
O=C(C=Cc1ccccc1)NCc1cn(CC(=O)Nc2ccc(Cl)cc2)nn1 [Compound 9c, N-((1-(2-((4-Chlorophenyl)amino)-2-oxoethyl)-1H-1,2,3-triazol-4-yl)methyl)cinnamamide] | 36.91 ± 0.51 | –
O=C(C=Cc1ccccc1)NCc1cn(CC(=O)Nc2ccc(Br)cc2)nn1 [Compound 9d, N-((1-(2-((4-Bromophenyl)amino)-2-oxoethyl)-1H-1,2,3-triazol-4-yl)methyl)cinnamamide] | 41.09 ± 4.11 | –
CCc1ccc(NC(=O)Cn2cc(CNC(=O)C=Cc3ccccc3)nn2)cc1 [Compound 9e, N-((1-(2-((4-Ethylphenyl)amino)-2-oxoethyl)-1H-1,2,3-triazol-4-yl)methyl)cinnamamide] | 47.36 ± 1.93 | –
O=C(C=Cc1ccc(Cl)cc1)NCc1cn(CC(=O)Nc2ccccc2)nn1 [Compound 9f, 3-(4-Chlorophenyl)-N-((1-(2-oxo-2-(phenylamino)ethyl)-1H-1,2,3-triazol-4-yl)methyl)acrylamide] | 46.18 ± 1.54 | –
O=C(C=Cc1ccc(Cl)cc1)NCc1cn(CC(=O)Nc2ccc(F)cc2)nn1 [Compound 9g, 3-(4-Chlorophenyl)-N-((1-(2-((4-fluorophenyl)amino)-2-oxoethyl)-1H-1,2,3-triazol-4-yl)methyl)acrylamide] | 45.73 ± 3.47 | –
O=C(C=Cc1ccc(Cl)cc1)NCc1cn(CC(=O)Nc2ccc(Cl)cc2)nn1 [Compound 9h, 3-(4-Chlorophenyl)-N-((1-(2-((4-chlorophenyl)amino)-2-oxoethyl)-1H-1,2,3-triazol-4-yl)methyl)acrylamide] | 22.82 ± 0.90 | –
O=C(C=Cc1ccc(Cl)cc1)NCc1cn(CC(=O)Nc2ccc(Br)cc2)nn1 [Compound 9i, N-((1-(2-((4-Bromophenyl)amino)-2-oxoethyl)-1H-1,2,3-triazol-4-yl)methyl)-3-(4-chlorophenyl)acrylamide] | 51.82 ± 2.31 | viability at 72 h, 100 µM ([2]; B16F10, 100 µM): > 80%; viability at 72 h, 150 µM ([2]; B16F10, 150 µM): 58.2 ± 3.43%; viability at 72 h, 200 µM ([2]; B16F10, 200 µM): 51.2 ± 4.34%; Cytotoxicity to B16F10 melanoma cells (in words) (B16F10 melanoma cells [3]): low cytotoxicity; Intracellular melanin content (B16F10 melanoma cells [4]): 62 µg/mL; Inhibition type (mushroom tyrosinase): competitive inhibition
CCc1ccc(NC(=O)Cn2cc(CNC(=O)C=Cc3ccc(Cl)cc3)nn2)cc1 [Compound 9j, 3-(4-Chlorophenyl)-N-((1-(2-((4-ethylphenyl)amino)-2-oxoethyl)-1H-1,2,3-triazol-4-yl)methyl)acrylamide] | 82.36 ± 5.91 | –
COc1ccc(NC(=O)Cn2cc(CNC(=O)C=Cc3ccc(Cl)cc3)nn2)cc1 [Compound 9k, 3-(4-Chlorophenyl)-N-((1-(2-((4-methoxyphenyl)amino)-2-oxoethyl)-1H-1,2,3-triazol-4-yl)methyl)acrylamide] | 55.28 ± 0.16 | –
COc1ccc(C=CC(=O)NCc2cn(CC(=O)Nc3ccccc3)nn2)cc1 [Compound 9l, 3-(4-Methoxyphenyl)-N-((1-(2-oxo-2-(phenylamino)ethyl)-1H-1,2,3-triazol-4-yl)methyl)acrylamide] | 43.91 ± 4.50 | –
COc1ccc(C=CC(=O)NCc2cn(CC(=O)Nc3ccc(F)cc3)nn2)cc1 [Compound 9m, N-((1-(2-((4-Fluorophenyl)amino)-2-oxoethyl)-1H-1,2,3-triazol-4-yl)methyl)-3-(4-methoxyphenyl)acrylamide] | 60.18 ± 6.94 | –
COc1ccc(C=CC(=O)NCc2cn(CC(=O)Nc3ccc(Cl)cc3)nn2)cc1 [Compound 9n, N-((1-(2-((4-Chlorophenyl)amino)-2-oxoethyl)-1H-1,2,3-triazol-4-yl)methyl)-3-(4-methoxyphenyl)acrylamide] | 68.64 ± 7.33 | –
COc1ccc(C=CC(=O)NCc2cn(CC(=O)Nc3ccc(Br)cc3)nn2)cc1 [Compound 9o, N-((1-(2-((4-Bromophenyl)amino)-2-oxoethyl)-1H-1,2,3-triazol-4-yl)methyl)-3-(4-methoxyphenyl)acrylamide] | 57.09 ± 6.17 | –
CCc1ccc(NC(=O)Cn2cc(CNC(=O)C=Cc3ccc(OC)cc3)nn2)cc1 [Compound 9p, N-((1-(2-((4-Ethylphenyl)amino)-2-oxoethyl)-1H-1,2,3-triazol-4-yl)methyl)-3-(4 methoxyphenyl)acrylamide] | 40.73 ± 5.91 | –
COc1ccc(C=CC(=O)NCc2cn(CC(=O)Nc3ccc(OC)cc3)nn2)cc1 [Compound 9q, 3-(4-Methoxyphenyl)-N-((1-(2-((4-methoxyphenyl)amino)-2-oxoethyl)-1H-1,2,3-triazol-4-yl)methyl)acrylamide] | 61.51 ± 3.74 | –
NC(=S)N/N=C/c1ccc(OCc2cn(Cc3ccc(F)cc3)nn2)cc1 [D] | – | IC50 (tyrosinase): 220 nM
Clc1ccc(Cn2cc(COc3ccc(-c4nc5ccccc5[nH]4)cc3)nn2)cc1Cl [E] | – | IC50 (tyrosinase): 9420 nM
O=c1cc(Cn2cc(Oc3ccc4ccccc4c3)nn2)occ1O [F] | – | IC50 (tyrosinase): 300 nM
